In publication PMC5068545, “Glycan Specificity of P[19] Rotavirus and Comparison with Those of Related P Genotypes” (Journal of Virology, 2016):

What was measured:
P[19] VP8* [1] = molecular target: T1, P[19] VP8* (Human rotavirus A, UniProt A7YCM0); assay: 1H-15N HSQC NMR titration; type: binding; settings: 20°C, pH 8.0, 10 mM Tris-HCl, 100 mM NaCl; 0.25 mM 15N-labelled VP8*, GST removed
T1 construct: gene VP4; VP8* domain (aa 46-231) of spike polyprotein VP4; E. coli BL21 GST fusion; GST cut with thrombin for NMR, kept in ELISA and glycan array
Text: 1H-15N HSQC NMR titration on P[19]

P[19] VP8* [2] = molecular target: T1, P[19] VP8*; assay: ELISA-based oligosaccharide binding; settings: GST-VP8*; labelled compound (biotin conjugate, multivalent); weak signal
Text: ELISA-based oligosaccharide binding on P[19] […] RVs recognized LNFPI and LNT | Low binding signals were detected for all four P[II] RVs

P[8] VP8* = molecular target: T2, P[8] VP8* (Human rotavirus A, UniProt A0A509GLV6); assay: ELISA-based oligosaccharide binding; settings: GST-VP8*; labelled compound (biotin conjugate, multivalent); weak signal
T2 construct: VP8* domain of spike polyprotein VP4; GST fusion from E. coli BL21
Text: ELISA-based oligosaccharide binding on P[8] […] RVs

P[4] VP8* = molecular target: T3, P[4] VP8* (Human rotavirus (SEROTYPE 2 / STRAIN DS1), UniProt P11196); assay: ELISA-based oligosaccharide binding; settings: GST-VP8*; labelled compound (biotin conjugate, multivalent); weak signal
T3 construct: VP8* domain of spike polyprotein VP4; GST fusion from E. coli BL21; DS1 is only the modelling template
Text: ELISA-based oligosaccharide binding on P[4] […] RVs

Structure (SMILES) | Kd (P[19] VP8* [1]) [µM] | ELISA-based oligosaccharide binding (P[19] VP8* [2]) | ELISA-based oligosaccharide binding (P[8] VP8*) | ELISA-based oligosaccharide binding (P[4] VP8*)
CC(=O)N[C@H]1[C@H](O[C@H]2[C@@H](O)[C@@H](CO)O[C@@H](O[C@H]3[C@H](O)[C@@H](O)C(O)O[C@@H]3CO)[C@@H]2O)O[C@H](CO)[C@@H](O)[C@@H]1O[C@@H]1O[C@H](CO)[C@H](O)[C@H](O)[C@H]1O[C@@H]1O[C@@H](C)[C@@H](O)[C@@H](O)[C@@H]1O (stereo partly shown) [LNFPI, Fucα1-2Galβ1-3GlcNAcβ1-3Galβ1-4Glc] | 2600 | – | – | –
CC(=O)N[C@H]1C(O)O[C@H](CO)[C@@H](O)[C@@H]1O[C@@H]1O[C@H](CO)[C@H](O)[C@H](O)[C@H]1O (stereo partly shown) [lacto-N-biose, Galβ1-3GlcNAc] | – | Low binding signals were detected for all four P[II] RVs | Low binding signals were detected for all four P[II] RVs | Low binding signals were detected for all four P[II] RVs
